Laboratory results taken from ChEMBL document CHEMBL1806385, “Discovery of potent, soluble and orally active TRPV1 antagonists. Structure-activity relationships of a series of isoxazoles” (Bioorg Med Chem Lett, 2011).
Converted amounts (≈) assume the structure as drawn.

Legend:
physchem = conditions: phosphate buffered saline, pH 7.4
Description: Intrinsic solubility of the compound in phosphate buffered saline at pH 7.4 by shake-flask method

[1] = Plasma protein binding in human; format: ADME, cell-free; conditions: read-out: PPB (converted)
[2] = Plasma protein binding in Wistar rat; format: ADME, cell-free; conditions: read-out: PPB (converted)
[3] = Intrinsic clearance in rat liver microsomes; format: ADME, Microsome
[4] = Intrinsic clearance in human liver microsomes; format: ADME, Microsome
[5] = biological target: Transient receptor potential cation channel subfamily V member 1 (Homo sapiens, UniProt Q8NER1)
Chain of Transient receptor potential cation channel subfamily V member 1 (Q8NER1 whole entry): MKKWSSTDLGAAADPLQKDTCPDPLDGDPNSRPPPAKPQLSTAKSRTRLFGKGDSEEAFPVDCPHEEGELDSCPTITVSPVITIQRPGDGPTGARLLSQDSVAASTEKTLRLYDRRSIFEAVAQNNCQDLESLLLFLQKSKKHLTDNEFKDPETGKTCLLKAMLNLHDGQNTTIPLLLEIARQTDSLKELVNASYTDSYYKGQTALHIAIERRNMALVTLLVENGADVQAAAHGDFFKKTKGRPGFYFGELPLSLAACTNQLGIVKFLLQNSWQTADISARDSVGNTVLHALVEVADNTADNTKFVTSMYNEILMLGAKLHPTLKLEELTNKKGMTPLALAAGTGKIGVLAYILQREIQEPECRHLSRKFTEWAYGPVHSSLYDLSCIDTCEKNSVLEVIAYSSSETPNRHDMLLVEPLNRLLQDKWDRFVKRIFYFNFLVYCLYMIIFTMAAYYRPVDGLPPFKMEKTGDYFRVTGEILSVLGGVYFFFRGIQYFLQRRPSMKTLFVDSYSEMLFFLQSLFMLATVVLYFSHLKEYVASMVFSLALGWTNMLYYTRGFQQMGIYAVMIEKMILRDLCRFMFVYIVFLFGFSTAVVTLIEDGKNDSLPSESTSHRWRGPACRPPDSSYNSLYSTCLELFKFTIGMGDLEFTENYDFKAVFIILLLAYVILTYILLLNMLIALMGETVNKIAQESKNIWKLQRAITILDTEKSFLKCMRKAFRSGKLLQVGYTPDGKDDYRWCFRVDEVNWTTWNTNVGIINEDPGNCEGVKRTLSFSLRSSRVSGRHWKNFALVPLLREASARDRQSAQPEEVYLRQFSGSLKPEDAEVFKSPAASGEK
Description: Antagonist activity at human TRPV1 expressed in CHO cells assessed as inhibition of calcium flux by FLIPR assay

[6] = AUClast in po dosed rat; format: ADME, organism-based; design: route oral, time 0 - last; conditions: plasma
[7] = Intrinsic clearance in rat hepatocytes assessed per 10^6 cells; format: ADME, cell-based, Liver, Hepatocyte
Rattus norvegicus = assay: Antihyperalgesic activity in po dosed rat capsaicin hargreaves model assessed as reversal of capsaicin-induced thermal hyperalgesia measured by paw withdrawal latency administered 2 hrs before capsaicin challenge; format: functional
[8] = Intrinsic clearance in human hepatocytes assessed per 10^6 cells; format: ADME, cell-based, Liver, Hepatocyte

| Compound | solubility thermodynamic (physchem) [µg/mL] | IC50 [5] [nM] | other results |
| --- | --- | --- | --- |
| O=C(N[C@@H]1CCC[C@H](O)C1)c1noc(-c2ccc(C(F)(F)F)cc2)c1Cl | < 1 | 0.501 | fraction unbound [1]: 0.01; fraction unbound [2]: 0.007; microsomal CLint [3]: < 12 µL/min/mg; microsomal CLint [4]: < 12 µL/min/mg |
| O=C(N[C@@H]1CCC[C@H](O)C1)c1noc(-c2ccc(F)cc2)c1Cl | 38 (≈ 112 µM) | 50.1 | – |
| CC(C)NCc1c(C(=O)N[C@@H]2CCC[C@H](O)C2)noc1-c1ccc(C(F)(F)F)cc1 | – | – | AUC(0-t) [6]: 2730 ng·h/mL; hepatocyte CLint [7]: < 6 µL/min/1e6 cells; MED (Rattus norvegicus): 30 µmol/kg; hepatocyte CLint [8]: < 6 µL/min/1e6 cells |
| O=C(N[C@@H]1CCC[C@H](O)C1)c1noc(-c2ccc(C(F)(F)F)c(F)c2)c1Cl | < 1 | 0.631 | – |
| O=C(N[C@@H]1CCC[C@H](O)C1)c1noc(-c2ccc(Cl)cc2)c1Cl | 3 (≈ 8.45 µM) | 5.01 | – |
| O=C(N[C@@H]1CCC[C@H](O)C1)c1noc(-c2ccc(Cl)c(F)c2)c1Cl | 2 (≈ 5.36 µM) | 0.631 | – |
| Cc1c(C(=O)N[C@@H]2CCC[C@H](O)C2)noc1-c1ccc(C(F)(F)F)c(F)c1 | 4 (≈ 10.4 µM) | 2 | – |
| CCOc1cc(Cl)ccc1-c1onc(C(=O)N[C@@H]2CCC[C@H](O)C2)c1C | 27 (≈ 71.3 µM) | 12.6 | – |
| CCOc1cc(Cl)ccc1-c1onc(C(=O)NC2CCC(O)CC2)c1C (stereo not drawn) | 28 (≈ 73.9 µM) | 200 | – |
| CCOc1cc(Cl)ccc1-c1onc(C(=O)NC2CCOCC2)c1C | < 1 | 12.6 | – |
| O=C(N[C@@H]1CCC[C@H](O)C1)c1onc(-c2ccc(Cl)c(F)c2)c1Cl | 11 (≈ 29.5 µM) | 3.16 | – |
| O=C(N[C@@H]1CCC[C@H](O)C1)c1onc(-c2ccc(F)cc2)c1Cl | 47 (≈ 139 µM) | 794 | – |
| O=C(N[C@@H]1CCC[C@H](O)C1)c1noc(-c2ccc(C(F)(F)F)cc2)c1CO | 73 (≈ 190 µM) | 79.4 | fraction unbound [1]: 0.081; fraction unbound [2]: 0.091; microsomal CLint [3]: 27 µL/min/mg; microsomal CLint [4]: < 12 µL/min/mg |
| O=C(NC1CCC(O)CC1)c1noc(-c2ccc(C(F)(F)F)cc2)c1CO (stereo not drawn) | 70 (≈ 182 µM) | 1580 | – |
| CC[C@H](CO)NC(=O)c1noc(-c2ccc(C(F)(F)F)cc2)c1CO | 66 (≈ 184 µM) | 1580 | – |
| O=C(NC1CCOCC1)c1noc(-c2ccc(C(F)(F)F)cc2)c1CO | 35 (≈ 94.5 µM) | 3160 | – |
| CC(C)[C@H](C)NC(=O)c1noc(-c2ccc(C(F)(F)F)cc2)c1CO | 1.5 (≈ 4.21 µM) | 126 | – |
| O=C(NC1CCCC1)c1noc(-c2ccc(C(F)(F)F)cc2)c1CO | 1 (≈ 2.82 µM) | 158 | – |
| CC(O)c1c(C(=O)NC2CCCC2)noc1-c1ccc(C(F)(F)F)cc1 (stereo not drawn) | < 1 | 1000 | – |
| CC(C)(O)c1c(C(=O)NC2CCCC2)noc1-c1ccc(C(F)(F)F)cc1 | < 1 | 5010 | – |
| CC(C)[C@H](C)NC(=O)c1noc(-c2ccc(C(F)(F)F)c(F)c2)c1CO | 1.4 (≈ 3.74 µM) | 20 | – |
| O=C(NC1CCCC1)c1noc(-c2ccc(C(F)(F)F)c(F)c2)c1CO | 73 (≈ 196 µM) | 39.8 | – |
| CC[C@H](CO)NC(=O)c1noc(-c2ccc(C(F)(F)F)c(F)c2)c1CO | 31 (≈ 82.4 µM) | 158 | – |
| CCNC(=O)c1c(C(=O)NC2CCCC2)noc1-c1ccc(C(F)(F)F)cc1 | 1.6 (≈ 4.05 µM) | 5010 | – |
| CN(C)C(=O)c1c(C(=O)NC2CCCC2)noc1-c1ccc(C(F)(F)F)cc1 | < 1 | 2000 | – |
| O=C(NC1CCCC1)c1noc(-c2ccc(C(F)(F)F)cc2)c1C(=O)O | 72 (≈ 195 µM) | 1580 | – |
| CC(C)NCc1c(C(=O)N[C@@H](C)C(C)C)noc1-c1ccc(C(F)(F)F)cc1 | 4 (≈ 10.1 µM) | 63.1 | – |
| CC(C)NCc1c(C(=O)NC2CCCC2)noc1-c1ccc(C(F)(F)F)cc1 | 13 (≈ 32.9 µM) | 316 | – |
| CC(C)NCc1c(C(=O)N[C@H](C)C(C)C)noc1-c1ccc(C(F)(F)F)cc1 | 12 (≈ 30.2 µM) | 794 | – |
